Reference: patent US20130331389A1, “Methods and Compositions for Cardiomyocyte Replenishment by Endogenous and Progenitor Stem Cells” (NATIONAL CHENG KUNG UNIVERSITY, priority 2012, published 2013)

How the values were obtained:
Format in all cases: in vivo, mouse
[1] = test system: interleukin-10 (IL-10); assay: Quantitative RT-PCR of IL-10 at injured region; conditions: both young and old mice; day 3 after infarction
Method: (§1) To induce Cre recombination to achieve GFP labeling of cardiomyocytes, tamoxifen (Sigma) was dissolved in sunflower oil (Sigma) at a concentration of 5 mg/ml. The tamoxifen solution was injected intraperitoneally into M/Z mice daily at a dosage of 40 μg per 1 g body weight for 14 days, and the same dosage was injected twice daily for short-term labeling using methods known in the art (Laugwitz, K.-L. et al. Nature 433, 647-653 (2005)). All experimental conditions were optimized prior to the PGE2, indomethacin and TGF-β Type I Receptor Kinase Inhibitor II (ALK5 Inhibitor II, ALK5i, Merck) treatments. The mice treated with PGE2 or PGI2 (Vegiopoulos, A. et al. Science 328, 1158-1161 (2010)) (both from Sigma) were injected intraperitoneally with 3.33 ng of drug per 1 g of body weight dissolved in absolute ethanol twice daily. […]
(§2) The total RNA isolated from the ischemic region or remote area of MI hearts was reverse transcribed using the SuperScript III (Invitrogen) system according to the manufacturer's protocol. For quantitative PCR, the SYBR Green reagent (Maestrogen) was used according to the manufacturer's protocol. The analysis of relative gene expression was performed using the 2̂[−delta delta Ct] method and sequence-specific primers designed for semi-quantitative PCR and real-time RT-PCR (FIG. 11).

[2] = test system: Sca-1; assay: Quantitative RT-PCR of Sca-1 in infarct zone of MI heart; conditions: day 3 post-MI
Method: To induce Cre recombination to achieve GFP labeling of cardiomyocytes, tamoxifen (Sigma) was dissolved in sunflower oil (Sigma) at a concentration of 5 mg/ml. The tamoxifen solution was injected intraperitoneally into M/Z mice daily at a dosage of 40 μg per 1 g body weight for 14 days, and the same dosage was injected twice daily for short-term labeling using methods known in the art (Laugwitz, K.-L. et al. Nature 433, 647-653 (2005)). All experimental conditions were optimized prior to the PGE2, indomethacin and TGF-β Type I Receptor Kinase Inhibitor II (ALK5 Inhibitor II, ALK5i, Merck) treatments. The mice treated with PGE2 or PGI2 (Vegiopoulos, A. et al. Science 328, 1158-1161 (2010)) (both from Sigma) were injected intraperitoneally with 3.33 ng of drug per 1 g of body weight dissolved in absolute ethanol twice daily. For the indomethacin treatment, mice were fed with water containing indomethacin (Sigma, 15 μg/ml) for different periods of time. The indomethacin-containing water was changed every 3 days. The mice subjected to the celecoxib (Lyons, T. R. et al. Nat. Med. 17, 1109-1115 (2011)) (Sigma) treatment were injected intraperitoneally with 5 μg of drug per 1 g of body weight daily. For ALK5i treatment, aged mice were injected intraperitoneally once per day with 1 μg of drug per 1 g of body weight one day before surgery and continuously until day 10 post-MI. Celecoxib and ALK5i were dissolved in ethanol and DMSO, respectively.
as §2

[3] = test system: EP2; assay: Quantitative RT-PCR of PGE2 receptors at infarct region of MI heart
Method: as §1, §2

[4] = test system: MMP2, MMP9, TNF-α, IL-1β and IL-6; assay: Quantitative RT-PCR of inflammatory cytokines in infarct region; conditions: young mice
Method: as §1, §2

[5] = test system: CD11b; assay: Quantitative RT-PCR of myeloid cell marker CD11b in infarct region; conditions: both young and old mice; day 3 post-infarction
Method: as §1, §2

**Q.** CCCCC[C@H](O)/C=C/C1C(O)CC(=O)C1C/C=C\CCCC(=O)O (stereo partly drawn) [PGE2, (5Z,11α,13E,15S)-7-[3-hydroxy-2-(3-hydroxyoct-1-enyl)-5-oxo-cyclopentyl]hept-5-enoic acid] was tested. Which “expression of interleukin-10 (IL-10)” value [1] did it give?
**A.** enhanced

**Q.** What about the Sca-1 expression ([2]; aged animals) of the same compound?
**A.** restored Sca-1 expression to levels similar to those in young mice

**Q.** What about the Sca-1 expression ([2]; young mice) of the same compound?
**A.** further increased

**Q.** What about the “expression of PGE2 receptor EP2 in hearts after MI” value [3] of the same compound?
**A.** significantly induced

**Q.** What about the “expression of inflammatory cytokines acting downstream of PGE2” value [4] of the same compound?
**A.** further enhanced

**Q.** And the CD11b level [5]?
**A.** induced
